Five molecules from US20220096515A1, “Methods and Formulations for Preventing Neurological or Psychiatric Disorders” (Huntington Medical Research Institutes, priority 2020, published 2022) can be followed below.

The target of one test is T1, P2Y13 receptor (Mus musculus, UniProt Q9D8I2).
T1 construct: imaged continuously before and after αβ-meATP, Bz-ATP and 2Me-SADP application (100 μM); endogenous in cells; host or cells: Primary periventricular endothelial cells from mouse embryonic telencephalon
T1 sequence (Q9D8I2 1-337): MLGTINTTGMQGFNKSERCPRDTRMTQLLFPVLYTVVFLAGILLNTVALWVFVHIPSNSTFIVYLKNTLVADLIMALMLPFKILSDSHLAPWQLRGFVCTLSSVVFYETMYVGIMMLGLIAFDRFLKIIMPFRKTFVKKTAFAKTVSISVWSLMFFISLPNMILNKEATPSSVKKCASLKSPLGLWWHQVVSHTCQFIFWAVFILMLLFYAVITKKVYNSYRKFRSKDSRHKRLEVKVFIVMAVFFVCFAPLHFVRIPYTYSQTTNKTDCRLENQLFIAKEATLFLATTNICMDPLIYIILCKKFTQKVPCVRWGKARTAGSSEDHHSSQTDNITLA
Description: Calcium imaging, P2Y13 agonist. It is filed as cell-based. The following applies: 100 μM; periventricular endothelial cells. The procedure: (§1) Calcium imaging: For Ca^2+ assays, periventricular endothelial cells (1 million cells per assay) were incubated with the Ca^2+ indicator dye FluoForte AM according to manufacturer's instructions (Enzo Life Sciences), loaded into the chamber of an FSX 100 microscope and imaged continuously before and after αβ-meATP, Bz-ATP and 2Me-SADP application (100 μM). Fluorescence micrographs were digitalized and results were expressed as change in fluorescence over baseline fluorescence.
(§2) An important aspect that influences endothelial cell proliferation is Ca^2+ influx, which is important for cell cycle progression in the neocortex. GABAA receptor activation in Gabrb3^fl/fl periventricular endothelial cells leads to an influx of Ca^2+ that influences cell proliferation. However, in Gabrb3^ECKO periventricular endothelial cells, due to the deletion of the β3 subunit, the GABAA receptors are dysfunctional. So, the autocrine feedback loop of GABA acting on GABAA receptors will not work in these Gabrb3^ECKO endothelial cells to cause Ca^2+ influx, even if GABA secretion is restored. […] Therefore, P2X4 expression at both mRNA and protein levels in periventricular endothelial cells were evaluated, prepared after the six-day saline and NAD^+ treatment paradigm (FIGS. 11J-11O). […]

For test [1], the target named is T2, P2X4 receptor (Mus musculus, UniProt Q9JJX6).
T2 construct: endogenous in cells; host or cells: Primary periventricular endothelial cells from mouse embryonic telencephalon (CD1 wild type; Gabrb3 fl/fl; Gabrb3 ECKO with or without NAD+)
T2 sequence (Q9JJX6 1-388): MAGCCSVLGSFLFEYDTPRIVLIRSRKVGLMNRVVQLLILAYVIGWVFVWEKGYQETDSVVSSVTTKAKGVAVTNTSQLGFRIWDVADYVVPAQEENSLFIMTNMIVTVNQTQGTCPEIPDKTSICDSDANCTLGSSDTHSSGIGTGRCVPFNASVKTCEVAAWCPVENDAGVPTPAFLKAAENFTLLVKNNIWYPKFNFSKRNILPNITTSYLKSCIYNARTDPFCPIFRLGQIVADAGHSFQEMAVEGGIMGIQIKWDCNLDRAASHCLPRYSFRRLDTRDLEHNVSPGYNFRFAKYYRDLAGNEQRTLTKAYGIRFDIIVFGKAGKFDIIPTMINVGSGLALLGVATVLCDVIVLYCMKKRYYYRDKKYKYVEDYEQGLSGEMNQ
As to the kind of experiment: P2X4 activation/inactivation in wild type endothelial cells: Daxx mRNA and GABA ELISA. To be noted: cultured wild type periventricular endothelial cells. The class given is cell-based. The procedure:
Quantitative real-time PCR: RT was performed by using iScript Reverse Transcription Supermix kit (Bio-Rad). PCR reactions were run on a CFX96 Touch Real Time PCR (Bio-Rad) with SsoAdvanced™ Universal SYBR® Green Supermix (Bio-Rad). Primers for qPCR (Daxx, P2x4, P2x7, P2y13, Tek, vwf, F2r, Sirt2, Nos1, Nrp1, Pax6, Gad1, Gad2, Grin2a, Trpm2, Trpc4 and Trpv6) were obtained from Thermo Fisher Scientific. The housekeeping gene Gapdh was used as a reference. The relative gene expression and subsequent fold changes among different samples were determined according to published methodology.
ELISA: Periventricular endothelial cells were prepared after the NAD^+ treatment paradigm, or after the treatment with purinergic receptor agonists/antagonists, and seeded in 12 well culture plates at 0.1×10^6 cells/well. Supernatants from endothelial cell cultures were collected after 96 hours and stored at −80° C. for ELISA. GABA concentrations were quantitatively determined by competitive ELISA according to the manufacturers' protocol (GABA Research ELISA kits, Labor Diagnostica Nord, Germany), and absorbance was measured using a multiplate microplate fluorescence reader (Molecular Devices, CA) at 450 nm.
(§3) An important aspect that influences endothelial cell proliferation is Ca^2+ influx, which is important for cell cycle progression in the neocortex. GABAA receptor activation in Gabrb3^fl/fl periventricular endothelial cells leads to an influx of Ca^2+ that influences cell proliferation. However, in Gabrb3^ECKO periventricular endothelial cells, due to the deletion of the β3 subunit, the GABAA receptors are dysfunctional. So, the autocrine feedback loop of GABA acting on GABAA receptors will not work in these Gabrb3^ECKO endothelial cells to cause Ca^2+ influx, even if GABA secretion is restored. In the absence of this mechanism, it was questioned whether the prenatal NAD^+ treatment was able to activate alternate mechanisms to trigger Ca^2+ influx in Gabrb3^ECKO endothelial cells. […] Therefore, P2X4 expression at both mRNA and protein levels in periventricular endothelial cells were evaluated, prepared after the six-day saline and NAD^+ treatment paradigm (FIGS. 11J-11O). P2X4 has been reported as the most abundantly expressed P2X receptor subtype in vascular endothelial cells from several tissues and its deficiency affects normal endothelial cell responses, such as Ca^2+ influx. However, P2X4 expression and functional significance in embryonic forebrain endothelial cells is unknown. […] To test whether P2X4 receptor activation on endothelial cells leads to an influx of Ca^2+, periventricular endothelial cells were incubated from the three groups in the presence of αβ-meATP that has been reported to show agonist activity at P2X receptors, including P2X4 (FIGS. 11N-11Q). […]
A general note: ELISA stands for enzyme-linked immunosorbent assay.

The subject of test [2] is periventricular endothelial cells isolated from E15 wildtype (CD1) forebrain. As to the kind of experiment: Endothelial cell proliferation in culture (confluency, BrdU labeling index). The following applies: 30 μM and 100 μM. It is filed as cell-based, mouse. The procedure:
Primary culture of endothelial cells and endothelial cell staining: Embryonic brains were dissected under a stereo-microscope, after the NAD^+ treatment paradigm and the telencephalon was removed. Pial membranes were peeled off. Telencephalon without pial membranes from the periventricular region was pooled. Purity of endothelial cell cultures was established with endothelial cell markers and determined to be one hundred percent. Isolation and culture of endothelial cells were performed according to published methodology. Periventricular endothelial cells were prepared from CD1 (wild type), saline-treated Gabrb3^fl/fl, saline-treated Gabrb3^ECKO, and NAD^+-treated Gabrb3^ECKO embryos. Endothelial cells were labeled with anti-biotinylated isolectinB4 (1:100, Sigma), anti-GABA (1:400, Sigma), anti-DAXX (1:100, Santa Cruz Biotechnology) and anti-P2X4 (1:100, Abclonal) followed by secondary detection with AlexaFluor conjugates (Invitrogen). DAPI (Invitrogen) was used to label nuclei. Images were taken on an FSX100 microscope (Olympus). 1 million cells were examined for each immunohistochemistry condition.
Endothelial cell proliferation and long-distance cell migration assay: To test for cell proliferation, CD1 periventricular endothelial cells (1 million cells per experiment) were incubated in the presence of the mitotic marker 5-bromo-2′-deoxyuridine (0.05% BrdU) with or without muscimol, for 1 hour to examine the impact on proliferation of these cells and processed for BrdU immunohistochemistry.
In one experiment, periventricular endothelial cells were isolated from E15 wildtype (CD1) forebrain and tested the effect of NAD^+ addition in vitro. Exogenous addition of 100 μM NAD^+ was able to initiate significant endothelial cell proliferation within 2 days of culture and a 35 mm culture dish was confluent within 4-6 days (FIGS. 2A-2D). This was an interesting observation, since untreated periventricular endothelial cells take approximately 12 days to reach confluency in 35mm dishes, in our well-established culture conditions. […] Vital elements of angiogenesis include effective endothelial cell proliferation, migration, sprouting, alignment, tube formation and branching. […] In some areas of the dish, the NAD^+-treated endothelial cells seemed to align and fold into tubular shapes (FIG. 2H), aspects that we have not seen in wild type or untreated periventricular endothelial cells in normal culture conditions.
Effects of NAD^+ addition to periventricular endothelial cells isolated from E15 wildtype (CD1) forebrain was more robust than GABA. (FIGS. 17A-17F) Phase contrast images of periventricular endothelial cells cultured from E15 CD1 forebrain at different time points in untreated conditions (FIGS. 17A-17B) or after plating with NAD^+ addition (100 μM; FIGS. 17C-17D) or GABA addition (5 μM; FIGS. 17E-17F). […] (FIG. 17G) All groups of periventricular endothelial cells were exposed to BrdU (1 mM BrdU per ml medium) for 1 hour followed by Isolectin B4/BrdU double labeling. Quantification of BrdU labeling indices; Data represents mean±SD (n=8, *P<0.05; Student's t-test).
In general terms: Incorporation of labelled thymidine or its analogues reports DNA synthesis.

In test [3] the target is T2, P2X4 receptor. As to the kind of experiment: Calcium imaging, P2X receptor agonist. The class given is cell-based. To be noted: 100 μM. The procedure: as §1, §3
The target in a further test is T3, P2X7 receptor (Mus musculus, UniProt Q9Z1M0).
T3 construct: imaged continuously before and after αβ-meATP, Bz-ATP and 2Me-SADP application (100 μM); endogenous in cells; host or cells: Primary periventricular endothelial cells from mouse embryonic telencephalon
T3 sequence (Q9Z1M0 1-595): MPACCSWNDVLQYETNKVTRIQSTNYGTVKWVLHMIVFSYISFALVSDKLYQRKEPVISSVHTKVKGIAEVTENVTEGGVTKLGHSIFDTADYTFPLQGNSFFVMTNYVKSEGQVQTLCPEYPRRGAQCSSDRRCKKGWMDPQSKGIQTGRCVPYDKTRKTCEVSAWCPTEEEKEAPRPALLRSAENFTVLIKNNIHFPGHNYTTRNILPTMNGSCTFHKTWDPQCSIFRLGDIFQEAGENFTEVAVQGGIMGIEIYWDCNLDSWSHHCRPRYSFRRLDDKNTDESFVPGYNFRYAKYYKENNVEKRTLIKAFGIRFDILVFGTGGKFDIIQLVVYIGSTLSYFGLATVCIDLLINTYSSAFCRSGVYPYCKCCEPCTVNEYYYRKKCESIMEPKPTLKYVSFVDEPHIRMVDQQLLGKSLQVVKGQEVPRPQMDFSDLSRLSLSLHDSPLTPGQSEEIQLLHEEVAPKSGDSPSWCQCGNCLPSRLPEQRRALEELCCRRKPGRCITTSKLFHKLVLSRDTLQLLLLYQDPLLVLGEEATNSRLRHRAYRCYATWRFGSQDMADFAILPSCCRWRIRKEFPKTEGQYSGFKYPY
Description: Calcium imaging, P2X7 agonist. The class given is cell-based. To be noted: 100 μM; periventricular endothelial cells. The procedure: as §1, §2

As to `CSc1nc(N)c2ncn([C@@H]3O[C@H](COP(=O)(O)OP(=O)(O)O)[C@@H](O)[C@H]3O)c2n1` [2Me-SADP], on P2Y13 receptor, the “influx of Ca^2+” value is “produced an influx of Ca^2+”.
On to `O=C1CC(=O)N(c2cccc(-c3nc(=S)o[nH]3)c2)c2ccc3ccccc3c2N1` [+NP-1815-PX, NP-1815-PX], for which, at P2X4 receptor [1], the “Daxx mRNA expression” value is “increased Daxx expression” and the “GABA secretion by ELISA” value is recorded as “reduced GABA secretion”.
For the molecule `NCCCC(=O)O` [GABA, reference compound], in test [2], the endothelial cell proliferation result is listed as “no notable effect on cell proliferation”.
For the molecule `Nc1ncnc2c1ncn2[C@@H]1O[C@H](COP(=O)(O)CP(=O)(O)OP(=O)(O)O)[C@@H](O)[C@H]1O` [αβ-meATP], the values for the intracellular calcium entry on P2X4 receptor [3] (NAD^+-treated Gabrb3^ECKO endothelial cells), on P2X4 receptor [3] (saline-treated Gabrb3^ECKO endothelial cells) and at P2X4 receptor [3] (saline-treated Gabrb3^fl/fl endothelial cells) were “significant increase in intracellular calcium”, “no marked increase in intracellular calcium” and “significant increase in intracellular calcium”, respectively. Further, on P2X4 receptor [1], the “Daxx mRNA expression” value is recorded as “reduced Daxx expression”. The “GABA secretion by ELISA” value at P2X4 receptor [1] is “increased GABA secretion”.
Consider Bz-ATP, for which, at P2X7 receptor, the “influx of Ca^2+” value is “produced an influx of Ca^2+”.
